Read-outs that look alike come from different tables or passages of the source.
Tests used:
NF-κB mRNA expression = NF-κB mRNA expression by RTqPCR in LPS-stimulated chondrocytes; assay type: cell-based, human; settings: IC50 doses
Description: (§1) Human articular chondrocytes (ScienCell, CA, USA) were cultured in the specific Chondrocyte Medium (Cat. 4651; ScienCell, CA, USA) supplemented with 1% antibiotic mixture, in 5% CO2 humidified incubator at 37°C. The medium was renewed every 2 days and confluent chondrocytes were trypsinized, subdivided, and re-plated. In these experiments chondrocytes from passage 3 to 7 were used. Chondrocytes were cultured in six well culture plates at a density of 2.5 × 10^5 cells/well. Sixteen hours after seeding, a set of plates were treated with LPS (2 μg/ml; Escherichia coli serotype 055:B5; […] Total RNA was isolated from human chondrocytes for RTqPCR analysis using Trizol Reagent Kit (Life Technologies, Monza, Italy). […] The amplified PCR products were quantified by measuring the calculated cycle thresholds (CT) of targets and β-actin mRNA. The amounts of specific mRNA in samples were calculated using the 2^-ΔΔCT method. The mean value of investigated mRNA levels in LPS or IL-1β-stimulated chondrocytes was chosen as the calibrator, and the results are expressed as % of reduction compared to LPS or IL-1β controls. The IC50 value was calculated by fitting the progress curves to the four-parameter IC50 equation using GraphPad prism software version 5.03 (Graphpad software, CA, USA). […]

COL2A1 mRNA expression = test: COL2A1 (type II collagen) mRNA expression by RTqPCR in chondrocytes stimulated with LPS or IL-1β; assay type: cell-based, human; settings: IC50 doses
Description: as §1

[1] = system: Human articular chondrocytes; test: MTT assay, cell viability of chondrocytes; assay type: cell-based; settings: IC50 concentrations, 24 h
Description: Human articular chondrocytes (ScienCell, CA, USA) were cultured in the specific Chondrocyte Medium (Cat. 4651; ScienCell, CA, USA) supplemented with 1% antibiotic mixture, in 5% CO2 humidified incubator at 37°C. The medium was renewed every 2 days and confluent chondrocytes were trypsinized, subdivided, and re-plated. In these experiments chondrocytes from passage 3 to 7 were used. Cell viability was evaluated by MTT assay. Chondrocytes were grown and then treated with IC50 doses when reached confluence. In particular, flavocoxid, curcumin, flavocoxid + curcumin, β-caryophyllene, and β-caryophyllene + curcumin were tested in a 96-well plate at a density of 8 × 10^4 cells/well for 24 h to evaluate the cytotoxic effect. The tetrazolium dye MTT 3-(4,5-dimethylthiazol-2-yl)-2,5-diphenyltetrazolium bromide (Sigma Aldrich, Milan, Italy) was dissolved in sterile filtered PBS, and 20 µl of the mixture were added into each well 5 h before the end of the 24 h of incubation. Medium was removed and the insoluble formazan crystals were dissolved with dimethyl sulfoxide (DMSO; 200 µl/well) following 5 h. The difference between the values obtained at 540 and 620 nm of absorbance was used to calculate the average of replicates and to evaluate cytotoxicity. Results were expressed as % of cell viability compared to untreated cells and reported as means and SD.

IL-1β mRNA expression = IL-1β mRNA expression (RTqPCR) in LPS-stimulated human articular chondrocytes; Chou-Talalay median-effect and combination index analysis; assay type: cell-based; settings: Chondrocyte, 4 h, LPS 2 µg/ml
Description: Human articular chondrocytes (ScienCell, CA, USA) were cultured in the specific Chondrocyte Medium (Cat. 4651; ScienCell, CA, USA) supplemented with 1% antibiotic mixture, in 5% CO2 humidified incubator at 37°C. The medium was renewed every 2 days and confluent chondrocytes were trypsinized, subdivided, and re-plated. In these experiments chondrocytes from passage 3 to 7 were used. Chondrocytes were cultured in six well culture plates at a density of 2.5 × 10^5 cells/well. Sixteen hours after seeding, a set of plates were treated with LPS (2 µg/ml; Escherichia coli serotype 055:B5; […] Total RNA was isolated from human chondrocytes for RTqPCR analysis using Trizol Reagent Kit (Life Technologies, Monza, Italy). […] RTqPCR was performed on both targets and endogenous control using SYBR Premix DimerEraser (Takara, Japan) and QuantStudio 6 Flex Real-Time PCR System (Applied Biosystems, CA, USA). The amplified PCR products were quantified by measuring the calculated cycle thresholds (CT) of targets and β-actin mRNA. The amounts of specific mRNA in samples were calculated using the 2^-ΔΔCT method. The mean value of investigated mRNA levels in LPS or IL-1β-stimulated chondrocytes was chosen as the calibrator, and the results are expressed as % of reduction compared to LPS or IL-1β controls. The IC50 value was calculated by fitting the progress curves to the four-parameter IC50 equation using GraphPad prism software version 5.03 (Graphpad software, CA, USA). Chou and Talalay multiple drug effect analysis was performed and it is based on the median-effect principle ([Chou and Talalay, 1984]; [Chou, 2006]). The Median Effect Equation states that fa/fu = (D/Dm) m, where D is the dose, fa and fu are the affected and the unaffected fractions, respectively, of IL-1β mRNA expression levels, by the dose D; Dm is the dose required to produce the median effect (i.e., IC50), and m is the Hill-type coefficient signifying the sigmoidicity of the dose–effect curve. […] The CI was calculated as: CI=[(D)1/(D50)1]+[(D) 2/(D50)2 […] The CI index was calculated using Grafit software.

STAT3 mRNA expression = STAT3 mRNA expression by RTqPCR in LPS-stimulated chondrocytes; assay type: cell-based, human; settings: IC50 doses
Description: as §1

[2] = matrix not stated; no reference given; cited from earlier work
[3] = curcumin/β-caryophyllene experiment, combination molar ratio 3.6:1, read-out: IC50, reduction of IL-1β mRNA

SMILES	NF-κB mRNA expression (NF-κB mRNA expression)	COL2A1 (type II collagen) mRNA expression (COL2A1 mRNA expression)	Cell viability (cytotoxic effect), MTT [1]	IC50 (IL-1β mRNA expression; curcumin/flavocoxid experiment, combination molar ratio 7.3:1, read-out: IC50, reduction of IL-1β mRNA) [µM]	IC50 (IL-1β mRNA expression; [3]) [µM]	STAT3 mRNA expression (STAT3 mRNA expression)	half-life [2]
COc1cc(/C=C/C(=O)CC(=O)/C=C/c2ccc(O)c(OC)c2)ccc1O [curcumin]	reduced	partially able to restore the mRNA control levels	did not affect chondrocytes viability	14.3	13.6	reduced	about 3 h
C=C1CC/C=C(\C)CC[C@@H]2[C@@H]1CC2(C)C [β-caryophyllene]	reduced	partially able to restore the mRNA control levels	did not affect chondrocytes viability		48.9	reduced	

Source: PMC6868087, “Exploiting Curcumin Synergy With Natural Products Using Quantitative Analysis of Dose–Effect Relationships in an Experimental In Vitro Model of Osteoarthritis” (Frontiers in Pharmacology, 2019)
